# Measurements reported in patent US9125940B2, “Compositions and methods for treating macular edema” (priority 2011, dated 2015).
# System: macular edema
# Assay: Case report Example 1: patient with macular edema after central vein occlusion in the left eye, OCT, vision acuity and eye pressure
# Format: in vivo, human
# Excerpt: A patient experienced central vein occlusion in their left eye and subsequently suffered macular edema in 2005. Weak drusens were found in both of their eyes. […] The patient received corsteroid injection in the left eye. The macular edema went away for four months. However, the left eye pressure went up to 35-40 mmHg. Eye drops for lowering eye pressure were used to treat the high eye pressure. Within half a year, the patient developed cataract in their left eye and shortly thereafter advanced to a point that their left eye lost most vision and the eye specialist recommended surgery to remove the cataract. At the time of the surgery, it was discovered that the patient's macular edema had come back and it was rather severe. Avastin injection was then employed to treat macular edema. The edema went away for a month but still came back 2-3 months afterwards. At this point, the patient was notified that regular injection would be required for the rest of their life. As shown in the images from Optical Coherence Tomography (OCT) (FIG. 1), macular edema returned three months after the Avastin injection. Such was a repeated phenomenon since 2005, for more than three years. Macular edema re-occurred typically 3 months following Avastin injection. […].
# [1] = June 2008, before treatment with the composition, FIG. 1
substance,measurement,setting,value
Avastin: Avastin injection employed to treat macular edema (anti-VEGF),ocular pressure three months after injection,[1],35 mmHg
same,vision acuity three months after injection,[1],20/40
same,time to re-occurrence of macular edema following injection,"left eye, intravitreal injection, repeated for more than three years",~3 months
